Source: the NIST ThermoML archive (doi:10.1016/j.jct.2019.04.018)

Experiment: xn = mol fraction of the nth substance listed
Settings: 100 kPa, Liquid; for viscosity: Capillary tube (Ostwald / Ubbelohde) method; for speed of sound: Frequency=2 MHz, Single path-length method; for mass density: Vibrating tube method

C=COCCCC [1-(ethenyloxy)butane] + C=COC(C)=O
Settings	mass density, 303.15 K [kg/m3]	mass density, 308.15 K [kg/m3]	mass density, 313.15 K [kg/m3]	speed of sound, 303.15 K [m/s]	speed of sound, 308.15 K [m/s]	speed of sound, 313.15 K [m/s]	viscosity, 303.15 K [mPa·s]	viscosity, 308.15 K [mPa·s]	viscosity, 313.15 K [mPa·s]
x2 = 0	769	763.9	758.8	1086	1076	1066	0.386	0.373	0.352
x2 = 0.1022	779.6	774.4	769.1	1086	1076	1066	0.385	0.368	0.35
x2 = 0.2014	790.7	785.4	780	1086	1076	1065	0.381	0.364	0.344
x2 = 0.2948	801.9	796.5	791	1087	1075	1064	0.377	0.36	0.339
x2 = 0.4002	815.6	810	804.4	1087	1075	1064	0.374	0.357	0.338
x2 = 0.502	829.9	824.1	818.3	1087	1074	1062	0.372	0.355	0.336
x2 = 0.5997	844.6	838.7	832.8	1088	1074	1062	0.373	0.357	0.337
x2 = 0.6979	860.6	854.5	848.4	1088	1074	1061	0.375	0.358	0.338
x2 = 0.7949	877.7	871.6	865.3	1089	1074	1059	0.378	0.36	0.341
x2 = 0.8999	898	891.9	885.5	1090	1074	1057	0.383	0.365	0.346

C=COC(C)=O [vinyl acetate] + CC(C)OC(C)C
Settings	mass density, 303.15 K [kg/m3]	mass density, 308.15 K [kg/m3]	mass density, 313.15 K [kg/m3]	speed of sound, 303.15 K [m/s]	speed of sound, 308.15 K [m/s]	speed of sound, 313.15 K [m/s]	viscosity, 303.15 K [mPa·s]	viscosity, 308.15 K [mPa·s]	viscosity, 313.15 K [mPa·s]
x1 = 0.1031	727.4	722.1	716.5	990	970	948	0.308	0.293	0.28
x1 = 0.1977	741.4	736	730.4	996	976	955	0.313	0.297	0.284
x1 = 0.3004	757.8	752.3	746.6	1004	985	964	0.318	0.302	0.288
x1 = 0.4002	775	769.4	763.7	1013	993	972	0.324	0.307	0.294
x1 = 0.5001	793.8	788.1	782.3	1022	1002	982	0.33	0.313	0.299
x1 = 0.6027	814.8	809.1	803.2	1032	1012	992	0.338	0.32	0.306
x1 = 0.7001	836.9	831	825	1042	1024	1003	0.347	0.329	0.313
x1 = 0.801	861.9	856	849.8	1056	1038	1016	0.359	0.34	0.323
x1 = 0.9014	889.5	883.5	877.2	1072	1053	1032	0.372	0.353	0.335
x1 = 1	919.4	913.5	907.3	1092	1074	1054	0.388	0.37	0.352

C=COC(C)=O [vinyl acetate] + CCCCOCCCC
Settings	mass density, 303.15 K [kg/m3]	mass density, 308.15 K [kg/m3]	mass density, 313.15 K [kg/m3]	speed of sound, 303.15 K [m/s]	speed of sound, 308.15 K [m/s]	speed of sound, 313.15 K [m/s]	viscosity, 303.15 K [mPa·s]	viscosity, 308.15 K [mPa·s]	viscosity, 313.15 K [mPa·s]
x1 = 0.0956	767.4	763	758.2	1141	1123	1107	0.575	0.54	0.509
x1 = 0.1922	776.2	771.6	767	1136	1118	1100	0.549	0.517	0.489
x1 = 0.3008	787.4	782.6	777.8	1131	1112	1093	0.522	0.493	0.467
x1 = 0.3962	798.4	793.5	788.5	1126	1107	1087	0.499	0.472	0.447
x1 = 0.5008	812.2	807.1	801.9	1120	1102	1080	0.476	0.451	0.427
x1 = 0.5997	827.4	822	816.6	1115	1096	1074	0.455	0.431	0.409
x1 = 0.6995	845	839.4	833.7	1110	1091	1068	0.436	0.414	0.393
x1 = 0.7995	865.6	859.8	853.8	1104	1085	1063	0.417	0.398	0.379
x1 = 0.8998	890	883.8	877.6	1099	1080	1058	0.401	0.383	0.365
x1 = 1	919.4	913.5	907.3	1092	1074	1054	0.388	0.37	0.352

C=COC(C)=O [vinyl acetate] + COc1ccccc1
Settings	mass density, 303.15 K [kg/m3]	mass density, 308.15 K [kg/m3]	mass density, 313.15 K [kg/m3]	speed of sound, 303.15 K [m/s]	speed of sound, 308.15 K [m/s]	speed of sound, 313.15 K [m/s]	viscosity, 303.15 K [mPa·s]	viscosity, 308.15 K [mPa·s]	viscosity, 313.15 K [mPa·s]
x1 = 0.0981	979.4	974.6	969.5	1350	1329	1310	0.843	0.775	0.724
x1 = 0.199	974	969	963.8	1316	1294	1274	0.766	0.708	0.664
x1 = 0.3015	968.3	963.1	957.8	1283	1260	1239	0.696	0.647	0.609
x1 = 0.3972	962.6	957.4	951.9	1253	1230	1208	0.638	0.595	0.562
x1 = 0.5005	956.2	950.8	945.2	1223	1199	1177	0.583	0.546	0.515
x1 = 0.5979	949.8	944.2	938.5	1194	1171	1150	0.535	0.503	0.476
x1 = 0.6988	942.8	937	931.1	1167	1144	1122	0.492	0.464	0.439
x1 = 0.8029	935.1	929.2	923.1	1139	1118	1096	0.451	0.427	0.406
x1 = 0.9005	927.5	921.5	915.3	1115	1095	1074	0.418	0.397	0.377
x1 = 1	919.4	913.5	907.3	1092	1074	1054	0.388	0.37	0.352
